This note sets out measurements from ChEMBL document CHEMBL1141835, “Sclerotigenin: A new antiinsectan benzodiazepine from the sclerotia of penicillium sclerotigenum” (1999).

The test system of the experiment is Helicoverpa zea. Put plainly: Insecticidal activity against first instar larvae of Helicoverpa zea at 200 ppm administered with diet relative to control. It is filed as functional.

In turn, `O=C1NCc2nc3ccccc3c(=O)n2-c2ccccc21` [SCLEROTIGENIN] showed an Activity of 42%.
